In PMC12177781, “Chalcogen Derivatives for the Treatment of African Trypanosomiasis: Biological Evaluation of Thio- and Seleno-Semicarbazones and Their Azole Derivatives” (ACS Omega, 2025):
Where two headings read alike, the source gives them in different places.

What was measured:
[1] = DPPH radical scavenging (antioxidant) assay; details: after 2 h, mean ± SEM
[2] = tested on: T. brucei brucei Lister 427; assay: T. b. brucei Lister 427 bloodstream-form growth inhibition, SYBR Green viability assay, 72 h; format: cell-based, Trypanosoma brucei brucei
[3] = target: T. brucei cathepsin L-like protease (TbrCATL) (Trypanosoma brucei rhodesiense, UniProt Q95PM0); assay: TbrCATL inhibition assay, Z-FR-AMC substrate; format: biochemical; details: for SI TbrCATL: IC50 hCatL/IC50 TbrCATL; for IC50: mean ± SD, two experiments in triplicate (n = 6)
Sequence of T. brucei cathepsin L-like protease (TbrCATL) (Q95PM0 1-450): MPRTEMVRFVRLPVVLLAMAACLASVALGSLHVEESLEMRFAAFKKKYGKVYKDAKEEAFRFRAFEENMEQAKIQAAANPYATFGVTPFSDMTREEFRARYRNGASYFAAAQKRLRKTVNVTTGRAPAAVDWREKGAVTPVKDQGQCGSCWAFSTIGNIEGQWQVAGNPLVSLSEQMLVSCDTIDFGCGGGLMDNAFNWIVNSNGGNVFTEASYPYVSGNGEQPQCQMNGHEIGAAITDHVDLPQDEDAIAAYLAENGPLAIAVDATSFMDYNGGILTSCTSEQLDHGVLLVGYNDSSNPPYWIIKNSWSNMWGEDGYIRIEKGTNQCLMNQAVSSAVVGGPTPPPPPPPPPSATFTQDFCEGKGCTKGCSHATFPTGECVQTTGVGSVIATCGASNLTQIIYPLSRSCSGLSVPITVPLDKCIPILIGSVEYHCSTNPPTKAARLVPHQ
Protocol: (§1) All experiments were performed in a 384-well black microplate, using a Synergy HTX (Biotek) plate reader at 25 °C with absorption/emission wavelengths of 360/460 nm. Assays were performed in triplicate wells and DMSO was used as a vehicle control. Enzyme activity was measured and normalized to DMSO controls, and the inhibitor E-64 (10 μM) was used as a positive control for all assays. Experiments were performed in triplicate, with at least two independent assays (n = 6 data points). IC50 values were determined through nonlinear regression. The data obtained were analyzed using GraphPad Prism 9.0 (GraphPad Software, La Jolla, California, US).
The screening assay was performed using 0.5 nM of TbrCATL diluted in 0.1 M sodium acetate, 1 mM dithiothreitol (DTT), and 0.01% Triton X-100, pH 5.5. TbrCATL was expressed and purified as described. Enzyme the compound (10 μM), were incubated for 10 min at room temperature. Then the substrate, Z-Phe-Arg-amidomethylcoumarin (Z-FR-AMC; Sigma-Aldrich, C9521), was added (30 μL diluted in the same assay buffer) to yield a final concentration of 2.5 μM and the assay allowed to proceed for 10 min. […] For those compounds inhibiting enzyme activity by >85%, DR assays were performed over 15 2-fold serial dilutions starting at 0.5 or 20 μM.

HepG2 cells = assay: HepG2 cytotoxicity, CellTiter-Glo, 48 h; details: for inhibition at 10 µM: Homo sapiens, HepG2, read-out: HepG2 inhibition (%); for HepG2 inhibition (%): growth inhibition at 10 µM, ± SD
HEK293 cells = assay: HEK293 cytotoxicity, CellTiter-Glo, 48 h; details: for inhibition at 10 µM: Homo sapiens, HEK293, read-out: HEK293 inhibition (%); for HEK293 inhibition (%): growth inhibition at 10 µM, ± SD
[4] = target: T1, human cathepsin L (hCatL) (Homo sapiens, UniProt P07711); assay: hCatL inhibition assay, Z-FR-AMC substrate; format: biochemical; details: mean ± SD, two experiments in triplicate (n = 6)
T1 construct: purchased R&D Systems 952-CY
T1 sequence (P07711 114-333): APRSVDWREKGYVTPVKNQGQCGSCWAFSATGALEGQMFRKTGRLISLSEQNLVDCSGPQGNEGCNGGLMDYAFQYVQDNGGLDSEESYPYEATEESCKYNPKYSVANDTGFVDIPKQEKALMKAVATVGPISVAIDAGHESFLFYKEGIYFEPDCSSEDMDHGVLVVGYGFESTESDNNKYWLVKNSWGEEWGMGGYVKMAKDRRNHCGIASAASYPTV
Protocol: as §1
Recombinant hCatL was purchased from R&D Systems (952-CY) and activated according to the manufacturers protocol. This enzyme, hCatL, is used to test compounds’ selectivity because it is the human homologue of TbrCATL. The assay was modified from, using 25 pM of the enzyme diluted in 40 mM sodium acetate, 5 mM DTT, 100 mM NaCl, 1 mM EDTA and 0.01% Triton X-100, pH 5.5. Enzyme and compound (10 μM), were incubated for 30 min at room temperature. Then Z-FR-AMC was added (30 μL diluted in the same assay buffer) to yield a final concentration of 25 μM and the assay allowed to proceed for 10 min. DR assays were performed over 15 2-fold serial dilutions starting at 0.5 or 20 μM.

in vitro [5] = details: human, CC50 HEK293 (μM)
in vitro [6] = details: human, CC50 HepG2 (μM)
C2C12 cells = details: read-out: Toxicity CC50 C2C12 cells; cited from earlier work
[7] = Trypanosoma brucei, growth inhibition at 10 µM, ± SD
[8] = at 10 μM, read-out: TbrCATL inhibition (%)
[9] = growth inhibition at 10 µM, ± SD
[10] = read-out: TbrCATL inhibition (%), at 10 μM
[11] = Trypanosoma brucei, three independent experiments in duplicate (n = 6) ± SD, read-out: EC50 T. brucei
[12] = growth inhibition at 10 µM, ± SD, 10 µM

Row | SMILES | % inhibited DPPH ([1]; 0.015 mg/ml) | % inhibited DPPH ([1]; 0.03 mg/ml) | % inhibited DPPH ([1]; 0.06 mg/ml) | inhibition at 10 µM [2, 7] | inhibition at 10 µM (HepG2 cells) | inhibition at 10 µM (HEK293 cells) | SI TbrCATL [3] | TbrCATL inhibition (%) ([3]; at 10 μM) | inhibition at 10 µM [3, 10] | IC50 [4] | other results
1 | O=C1O[C@H]([C@@H](O)CO)C(O)=C1O [ASC, ascorbic acid, reference compound] | 76.00 ± 3.52% | 80.33 ± 0.33% | 80.33 ± 0.67% |  |  |  |  |  |  |  | 
2 | N=C(N)c1ccc(OCCCCCOc2ccc(C(=N)N)cc2)cc1 [Pentamidine, reference compound] |  |  |  |  |  |  |  |  |  |  | inhibition at 10 µM ([2]; Trypanosoma brucei): 100 ± 2%; EC50 ([2]; Trypanosoma brucei, read-out: EC50 T. brucei (μM)): 0.014 ± 0.002 µM
3 | C/C(=N\Nc1nc(C)cs1)c1ccc(C)cc1 [SC1] | 55.00 ± 1.53% | 54.33 ± 1.86% | 60.00 ± 4.16% | 30 ± 6% | 4 ± 15% | 24 ± 7% |  |  |  |  | inhibition at 10 µM [3, 8]: 32.9%
4 | COc1ccc(C(C)=NNc2nc(C)cs2)cc1.Cl [SC2] |  |  |  |  |  |  |  |  |  |  | T. brucei inhibition (%) [2, 9]: 27 ± 5%; HepG2 inhibition (%) (HepG2 cells): 6 ± 3%; HEK293 inhibition (%) (HEK293 cells): 33 ± 8%
5 | C/C(=N\Nc1nc(C)cs1)c1ccc(Br)cc1 [SC3] | 68.00 ± 3.06% | 69.33 ± 2.33% | 67.00 ± 2.31% | 38 ± 9% | 46 ± 7% | 64 ± 2% |  |  |  |  | inhibition at 10 µM [3, 8]: 54%
6 | C/C(=N\Nc1nc(C)cs1)c1cccc([N+](=O)[O-])c1 [SC5] | 66.33 ± 1.86% | 68.67 ± 2.03% | 66.67 ± 1.86% | 40 ± 8% | 17 ± 2% | 30 ± 3% | 49 | 87.70% | > 85% | 4.07 ± 0.383 µM | IC50 ([3]; read-out: IC50 TbrCATL): 82.6 ± 4.05 nM
7 | C/C(=N\Nc1nc(C)cs1)C12CC3CC(CC(C3)C1)C2.Cl [SC11] |  |  |  |  |  |  |  |  |  |  | T. brucei inhibition (%) [2, 9]: 19 ± 8%; HepG2 inhibition (%) (HepG2 cells): 0 ± 13%; HEK293 inhibition (%) (HEK293 cells): 39 ± 3%
8 | C/C(=N\NC(N)=S)c1ccc(C)cc1 [SO1] |  |  | 45.00 ± 8.33% | 44 ± 7% | 50 ± 4% | 30 ± 3% |  |  |  |  | inhibition at 10 µM [3, 8]: 80%
9 | C/C(=N\NC(N)=S)c1ccc(Br)cc1 [SO3] |  |  | 29.33 ± 24.77% | 28 ± 4% | 65 ± 4% | 76 ± 2% | 19 | 95.54% | > 85% | 0.136 ± 0.0199 µM | IC50 ([3]; read-out: IC50 TbrCATL): 7.33 ± 0.27 nM
10 | C/C(=N\NC(N)=S)c1cccc([N+](=O)[O-])c1 [SO5] |  |  | 23.33 ± 19.46% | 31 ± 5% | 39 ± 9% | 14 ± 9% | 4 | 100.00% | > 85% | 0.0207 ± 0.00436 µM | IC50 ([3]; read-out: IC50 TbrCATL): 5.83 ± 0.35 nM
11 | C/C(=N\Nc1nc(C)c[se]1)c1ccc(C)cc1 [SeC1] | 71.67 ± 2.85% | 71.67 ± 2.40% | 72.33 ± 2.33% | 72 ± 6% | 65 ± 9% | 77 ± 2% |  | 51.07% |  |  | EC50 [2, 11]: 9.8 ± 0.63 µM; T. brucei inhibition (%) [2, 12]: > 70%; TbrCATL inhibition (%) ([3]; at 10 μM, listed as Se C1, 10 µM): ≤ 85%; CC50 (in vitro [5]): 12 ± 4.94 µM; CC50 (in vitro [6]): 11 ± 0.88 µM
12 | C/C(=N\Nc1nc(C)c[se]1)c1ccc(Br)cc1 [SeC3] | 35.00 ± 18.82% | 71.00 ± 3.06% | 75.67 ± 1.45% |  | 80 ± 2% | 88 ± 3% | 4 | 101.02% | > 85% | 0.793 ± 0.0665 µM | EC50 [2, 11]: 6.04 ± 0.72 µM; T. brucei inhibition (%) [2, 12]: 99 ± 2%; T. brucei inhibition (%) ([2]; growth inhibition at 10 µM, ± SD, listed as Se C3, 10 µM): > 70%; IC50 ([3]; IC50 TbrCATL (nM)): 201.7 ± 0.92 nM; CC50 (in vitro [5]): 5.9 ± 1.22 µM; CC50 (in vitro [6]): 4.68 ± 0.14 µM; CC50 (C2C12 cells): > 10 µM
13 | C/C(=N\Nc1nc(C)c[se]1)C12CC3CC(CC(C3)C1)C2 [SeC11] |  |  |  |  |  |  |  |  |  |  | T. brucei inhibition (%) [2, 9]: 37 ± 0%; HepG2 inhibition (%) (HepG2 cells): 66 ± 2%; HEK293 inhibition (%) (HEK293 cells): 64 ± 10%
14 | C/C(=N\NC(N)=[Se])c1ccc(C)cc1 [SeO1] | 45.67 ± 9.56% | 78.00 ± 1.16% | 77.33 ± 1.76% |  | 80 ± 1% | 100 ± 1% | 5 | 97.08% | > 85% | 0.0845 ± 0.017 µM | EC50 [2, 11]: 0.98 ± 0.12 µM; T. brucei inhibition (%) [2, 12]: 100 ± 1%; T. brucei inhibition (%) ([2]; growth inhibition at 10 µM, ± SD, listed as Se O1, 10 µM): > 70%; IC50 ([3]; IC50 TbrCATL (nM)): 17.9 ± 3.62 nM; CC50 (in vitro [5]): 4.27 ± 0.22 µM; CC50 (in vitro [6]): 4.17 ± 0.6 µM
15 | C/C(=N\NC(N)=[Se])C12CC3CC(CC(C3)C1)C2 [SeO11] |  |  |  |  |  |  |  |  |  |  | T. brucei inhibition (%) [2, 12]: 100 ± 1%; T. brucei inhibition (%) ([2]; growth inhibition at 10 µM, ± SD, listed as Se O11, 10 µM): > 70%; EC50 ([2]; three independent experiments in duplicate (n = 6) ± SD, read-out: EC50 T. brucei): 5.16 ± 1.06 µM; HepG2 inhibition (%) (HepG2 cells): 66 ± 5%; CC50 (HepG2 cells; read-out: CC50 HepG2, three independent experiments in duplicate): 6.01 ± 0.69 µM; HEK293 inhibition (%) (HEK293 cells): 100 ± 4%; CC50 (HEK293 cells; read-out: CC50 HEK293, three independent experiments in duplicate): 10.5 ± 0.36 µM
16 | Cc1c(C)c2c(c(C)c1O)CCC(C)(C(=O)O)O2 (stereo not shown) [TRO, Trolox, reference compound] | 79.33 ± 1.33% | 79.33 ± 0.882% | 79.67 ± 0.67% |  |  |  |  |  |  |  | 
